The text below walks through data of publication PMC6004562, “Discovery of Orally Bioavailable, Quinoline-Based Aldehyde Dehydrogenase 1A1 (ALDH1A1) Inhibitors with Potent Cellular Activity” (Journal of Medicinal Chemistry, 2018).

The conditions of series [1]: Figure 1, previously reported; cited from earlier work.
The conditions of series [2]: Figure 1, previously reported; cited from earlier work. The source holds these as a separate data set.
Series [3] can be described thus: pharmacokinetics in CD-1 mice. The format is in vivo. The conditions noted are these: male, plasma, CD-1 mouse; for Vd: read-out: Vss; for bioavailability: po 10 mg/kg vs iv 2 mg/kg.
A short description of series [4]: pilot toxicity / tolerability study in CD-1 mice. The following applies: po 50 mg/kg, QD*5, 5 days observation.
For series [5] the following is noted: mouse, in vivo, po, 50 mg/kg.
Where [6] appears, read: iv 2 mg/kg, observed at t = 5 min.

Like-named read-outs stand apart in the source and are kept apart here.

Take `CC(C)CCn1c(CN2CCN(C(=O)C3CC3)CC2)nc2c1c(=O)n(C)c(=O)n2C` [Compound 4]: the RLM in series [1] is listed as greater than 30 min. The solubility in series [2] was greater than 62 µg/mL.
Turning to `N#CC1(c2ccccc2)CCN(c2c(C(=O)N3CCN(C(=O)C4CC4)CC3)cnc3ccc(F)cc23)CC1` [Compound 78], in series [3] (iv 2 mg/kg), the total exposure AUC(0-inf) is 505 ng·h/mL and the Vd was determined as 1.2 L/kg. In series [3] (setting [6]), the Cmax came to 1500 ng/mL. In addition, in series [3] (po 10 mg/kg), the AUC(0-inf) is 227 ng·h/mL and the concentration peaked (Cmax) at 215 ng/mL. This compound also had a bioavailability in series [3] of 9%.
As for `CS(=O)(=O)N1CCN(C(=O)c2cnc3ccc(F)cc3c2N2CCC(C#N)(c3ccccc3)CC2)CC1` [Compound 86, 1-(6-Fluoro-3-(4-(methylsulfonyl)piperazine-1-carbonyl)quinolin-4-yl)-4-phenylpiperidine-4-carbonitrile], in series [4], the tolerability result is “no significant weight loss or abnormal clinical signs and no mortality was observed”.
Regarding `CS(=O)(=O)N1CCN(C(=O)c2cnc3ccc(F)cc3c2-c2ccc(C3(C#N)CC3)cc2)CC1` [Compound 91, 1-(4-(6-Fluoro-3-(4-(methylsulfonyl)piperazine-1-carbonyl)quinolin-4-yl)phenyl)cyclopropanecarbonitrile], the tolerability result in series [5] is “no significant weight loss or abnormal clinical signs and no mortality was observed”.
Take `CN(C)C(=O)N1CCN(C(=O)c2cnc3ccc(F)cc3c2N2CCC(C#N)(c3ccccc3)CC2)CC1` [Compound 108]: the AUC(0-inf) in series [3] (iv 2 mg/kg) turned out to be 661 ng·h/mL; in series [3] (po 10 mg/kg), 844 ng·h/mL. In addition, the values for the peak concentration (Cmax) in series [3] (setting [6]) and in series [3] (po 10 mg/kg) were 1800 ng/mL and 1110 ng/mL, respectively. Further, in series [3] (iv 2 mg/kg), the Vd turned out to be 0.72 L/kg. In addition, the bioavailability in series [3] was determined as 30%.
On to `CS(=O)(=O)N1CCN(C(=O)c2cnc3ccc(Cl)cc3c2N2CCC(C#N)(c3ccccc3)CC2)CC1` [Compound 109], for which, in series [3] (iv 2 mg/kg), the AUC(0-inf) was 459 ng·h/mL and the Vd came to 1.39 L/kg. In series [3] (setting [6]), this compound displayed a Cmax of 1100 ng/mL. Also, in series [3] (po 10 mg/kg), the AUC(0-inf) worked out at 720 ng·h/mL and the concentration peaked (Cmax) at 471 ng/mL. For the same compound, in series [3], the bioavailability stood at 31%.
For the compound `CN(C)C(=O)N1CCN(C(=O)c2cnc3ccc(F)cc3c2-c2ccc(C3(C#N)CC3)cc2)CC1` [Compound 118], in series [3] (iv 2 mg/kg), the AUC(0-inf) is 1410 ng·h/mL and the Vd is 2.2 L/kg. Also, the concentration in series [3] (setting [6]) peaked (Cmax) at 1960 ng/mL. In series [3] (po 10 mg/kg), the total exposure AUC(0-inf) was 2140 ng·h/mL and the peak level (Cmax) was 1170 ng/mL. In series [3], the bioavailability came to 30%.
For `CS(=O)(=O)N1CCN(C(=O)c2cnc3ccc(Cl)cc3c2-c2ccc(C3(C#N)CC3)cc2)CC1` [Compound 119], in series [3] (iv 2 mg/kg), the AUC(0-inf) was found to be 1130 ng·h/mL and the Vd was found to be 1.14 L/kg. Further, in series [3] (po 10 mg/kg), the area under the curve AUC(0-inf) was 2760 ng·h/mL and the maximum concentration (Cmax) was 1470 ng/mL. Moreover, the bioavailability in series [3] was 49%.

Broadly, the solubility is how much of the substance goes into solution per volume. By AUC(0-inf) is commonly meant total exposure, with the tail of the curve extrapolated. A word on the Cmax: it is the highest concentration seen after dosing. For orientation: bioavailability means dose-corrected exposure relative to a reference, in per cent. The low end stands for little systemic uptake, the high end for much systemic uptake.
